Reference: publication PMC2776710 (Basic research in cardiology, 2009)

Target: mitochondrial respiratory complex II (succinate-ubiquinone oxidoreductase) (Rattus norvegicus, UniProt P21913+Q641Z9+Q6PCT8)
Sequence (P21913 31-282): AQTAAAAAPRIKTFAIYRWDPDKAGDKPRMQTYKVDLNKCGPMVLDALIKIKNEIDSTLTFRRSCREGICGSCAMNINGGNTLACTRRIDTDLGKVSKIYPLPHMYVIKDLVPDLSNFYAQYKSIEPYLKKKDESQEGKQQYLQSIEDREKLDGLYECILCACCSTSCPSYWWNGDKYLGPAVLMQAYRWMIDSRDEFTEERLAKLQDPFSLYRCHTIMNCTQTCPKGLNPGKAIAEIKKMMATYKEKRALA
Sequence (Q641Z9 30-169): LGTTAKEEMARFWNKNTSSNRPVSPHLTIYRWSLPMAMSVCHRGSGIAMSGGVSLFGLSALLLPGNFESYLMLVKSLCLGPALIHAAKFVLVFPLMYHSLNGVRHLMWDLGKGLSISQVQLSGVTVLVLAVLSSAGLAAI
Sequence (Q6PCT8 57-159): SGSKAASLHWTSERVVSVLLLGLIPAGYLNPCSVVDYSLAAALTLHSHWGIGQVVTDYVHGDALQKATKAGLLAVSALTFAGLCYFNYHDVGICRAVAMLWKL
Sequence (Q920L2 35-656 partner): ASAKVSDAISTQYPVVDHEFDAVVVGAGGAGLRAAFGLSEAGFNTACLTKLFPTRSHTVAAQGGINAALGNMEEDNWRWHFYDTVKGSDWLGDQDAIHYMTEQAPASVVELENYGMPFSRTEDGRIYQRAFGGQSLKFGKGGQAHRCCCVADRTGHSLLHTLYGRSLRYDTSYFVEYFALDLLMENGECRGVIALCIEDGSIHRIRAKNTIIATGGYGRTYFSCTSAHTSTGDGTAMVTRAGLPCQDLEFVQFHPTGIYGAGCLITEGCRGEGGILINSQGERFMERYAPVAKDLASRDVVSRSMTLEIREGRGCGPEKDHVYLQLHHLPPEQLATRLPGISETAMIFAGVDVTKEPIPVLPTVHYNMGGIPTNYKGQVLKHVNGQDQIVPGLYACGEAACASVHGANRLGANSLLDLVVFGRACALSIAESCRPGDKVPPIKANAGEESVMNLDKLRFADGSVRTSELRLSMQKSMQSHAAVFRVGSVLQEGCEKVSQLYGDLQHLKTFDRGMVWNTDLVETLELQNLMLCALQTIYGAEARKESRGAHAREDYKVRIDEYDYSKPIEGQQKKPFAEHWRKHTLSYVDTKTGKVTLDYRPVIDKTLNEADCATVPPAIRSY

COc1[nH]c(=O)c(C(=O)[C@@H](C)C[C@H](C)[C@@H](Cl)CCl)c(O)c1OC [AA5, atpenin A5]
IC50: 8.3 nM
